Literature values as cited in patent US11648202B2, “Hydroxychloroquine sulfate formulations and methods for preparation and use thereof” (Research Triangle Institute, priority 2017, dated 2023).
Counter-ions that a name gives are not always drawn.

pKa of the amine: about 9.4
Structure (SMILES): CCN(CCO)CCCC(C)Nc1ccnc2cc(Cl)ccc12 (stereo not shown) [HCQS, hydroxychloroquine sulfate]
